# Molecular target: T1, Human pyruvate kinase R (PKR) (Homo sapiens, UniProt P30613)
# T1 construct: Human pyruvate kinase R (PKR), residues 14-574; 6x-His (N, cleaved yes); 8x-Arg (N, cleaved yes); SUMO (N, cleaved yes); host or cells: E. coli
# Experiment: Biochemical assay for activation of pyruvate kinase R (Kinase-Glo luminescence measurement of ATP generation)
# Conditions: for AC50: PKR biochemical assay, 0.1 nM PKR, 0.3 mM ADP, 2 mM FBP, 0.1 mM PEP; for Emax: maximal activation level relative to the activation level achieved by the literature compound AG-348 @ 10 μM
# How it was run: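 Recombinant human PKR (residues 14-574), E. coli-expressed with His-Arg-SUMO tag removed, purified by Ni-NTA, anion exchange and size exclusion. Activation measured as ATP generation via Kinase-Glo luminescence.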
# T1 sequence (P30613 14-574): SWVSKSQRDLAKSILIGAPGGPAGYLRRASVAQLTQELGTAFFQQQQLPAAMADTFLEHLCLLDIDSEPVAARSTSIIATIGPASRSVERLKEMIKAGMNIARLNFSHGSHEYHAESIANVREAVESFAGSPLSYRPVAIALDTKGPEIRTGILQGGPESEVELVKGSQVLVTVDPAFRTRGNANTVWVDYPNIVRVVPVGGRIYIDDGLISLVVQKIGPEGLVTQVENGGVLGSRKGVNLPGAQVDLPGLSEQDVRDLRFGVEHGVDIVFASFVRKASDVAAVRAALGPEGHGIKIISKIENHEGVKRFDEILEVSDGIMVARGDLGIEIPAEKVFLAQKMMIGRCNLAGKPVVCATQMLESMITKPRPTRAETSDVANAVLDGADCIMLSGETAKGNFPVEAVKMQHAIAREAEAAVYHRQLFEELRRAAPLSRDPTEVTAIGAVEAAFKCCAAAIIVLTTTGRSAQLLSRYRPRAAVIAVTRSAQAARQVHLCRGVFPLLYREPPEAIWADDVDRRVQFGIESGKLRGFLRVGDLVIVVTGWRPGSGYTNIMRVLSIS
AC50 [nM],Emax [%],SMILES
30,107,"O=C(NCc1nc(CF)nn1-c1ccc(Cl)c(F)c1)NCc1n[nH]c(=O)n1-c1ccc(Cl)c(F)c1 [Compound 107, 1-{[1-(4-chloro-3-fluorophenyl)-3-(fluoromethyl)-1H-1,2,4-triazol-5-yl]methyl}-3-{[4-(4-chloro-3-fluorophenyl)-5-oxo-4,5-dihydro-1H-1,2,4-triazol-3-yl]methyl}urea]"
900,74,"Cc1nc(CNC(=O)NCc2ncnn2-c2cc(F)c3cncnc3c2)n(-c2ccc(Cl)c(F)c2)n1 [Compound 108, 1-{[1-(4-chloro-3-fluorophenyl)-3-methyl-1H-1,2,4-triazol-5-yl]methyl}-3-{[1-(5-fluoroquinazolin-7-yl)-1H-1,2,4-triazol-5-yl]methyl}urea]"
110,96,"O=C(NCC1=NC2(CC2)C(=O)N1Cc1ccc(F)cc1)NCc1ncnn1-c1ccc(Cl)c(F)c1 [Compound 109, 1-{[1-(4-chloro-3-fluorophenyl)-1H-1,2,4-triazol-5-yl]methyl}-3-({6-[(4-fluorophenyl)methyl]-7-oxo-4,6-diazaspiro[2.4]hept-4-en-5-yl}methyl)urea]"
61,83,"O=C(NCC1=NC2(CC2)C(=O)N1Cc1ccc(F)cc1)NCc1ncnn1-c1ccc2cccnc2c1 [Compound 110, 3-({6-[(4-fluorophenyl)methyl]-7-oxo-4,6-diazaspiro[2.4]hept-4-en-5-yl}methyl)-1-{[1-(quinolin-7-yl)-1H-1,2,4-triazol-5-yl]methyl}urea]"
140,105,"Cc1nc(CNC(=O)NCC2=NC3(CC3)C(=O)N2c2ccc3cccnc3c2)n(-c2ccc(Cl)c(F)c2)n1 [Compound 111, 1-{[1-(4-chloro-3-fluorophenyl)-3-methyl-1H-1,2,4-triazol-5-yl]methyl}-3-{[7-oxo-6-(quinolin-7-yl)-4,6-diazaspiro[2.4]hept-4-en-5-yl]methyl}urea]"
802,126,"Cc1nc(CNC(=O)NCC2=NC3(CCC3)C(=O)N2c2ccc3cccnc3c2)n(-c2ccc(Cl)c(F)c2)n1 [Compound 112, 1-{[1-(4-chloro-3-fluorophenyl)-3-methyl-1H-1,2,4-triazol-5-yl]methyl}-3-{[8-oxo-7-(quinolin-7-yl)-5,7-diazaspiro[3.4]oct-5-en-6-yl]methyl}urea]"
40,116,"Cc1nc(CNC(=O)NCc2ncnn2-c2cc(C)c3cccnc3c2)n(-c2ccc(Cl)c(F)c2)n1 [Compound 113, 1-{[1-(4-chloro-3-fluorophenyl)-3-methyl-1H-1,2,4-triazol-5-yl]methyl}-3-{[1-(5-methylquinolin-7-yl)-1H-1,2,4-triazol-5-yl]methyl}urea]"
670,61,"Cc1ccc(-n2nnnc2CNC(=O)NCc2nnnn2-c2ccc(C)cc2F)c(F)c1 [Compound 114, 1,3-bis({[1-(2-fluoro-4-methylphenyl)-1H-1,2,3,4-tetrazol-5-yl]methyl})urea]"
1700,148,"O=C(NCc1nnnn1-c1ccc(C(F)(F)F)cc1)NCc1nnnn1-c1ccc(C(F)(F)F)cc1 [Compound 115, 1,3-bis({1-[4-(trifluoromethyl)phenyl]-1H-1,2,3,4-tetrazol-5-yl}methyl)urea]"
89,39,"O=C(NCc1ncnn1-c1ccc(Cl)nc1)NCc1ncnn1-c1ccc(Cl)nc1 [Compound 116, 1,3-bis({[1-(6-chloropyridin-3-yl)-1H-1,2,4-triazol-5-yl]methyl})urea]"
2600,53,"COc1ccc(-n2ncnc2CNC(=O)NCc2ncnn2-c2ccc(OC)nc2)cn1 [Compound 117, 1,3-bis({[1-(6-methoxypyridin-3-yl)-1H-1,2,4-triazol-5-yl]methyl})urea]"
47,36,"COc1ccc(-n2ncnc2CNC(=O)NCc2ncnn2-c2ccc(Cl)c(F)c2)cn1 [Compound 118, 3-{[1-(4-chloro-3-fluorophenyl)-1H-1,2,4-triazol-5-yl]methyl}-1-{[1-(6-methoxypyridin-3-yl)-1H-1,2,4-triazol-5-yl]methyl}urea]"
1100,31,"O=C(NCc1ncnn1-c1ccc(O)nc1)NCc1ncnn1-c1ccc(Cl)c(F)c1 [Compound 119, 3-{[1-(4-chloro-3-fluorophenyl)-1H-1,2,4-triazol-5-yl]methyl}-1-{[1-(6-hydroxypyridin-3-yl)-1H-1,2,4-triazol-5-yl]methyl}urea]"
220,51,"CCN(Cc1ncnn1-c1ccc(Cl)c(F)c1)C(=O)NCc1ncnn1-c1ccc(OC)nc1 [Compound 120, 3-{[1-(4-chloro-3-fluorophenyl)-1H-1,2,4-triazol-5-yl]methyl}-3-ethyl-1-{[1-(6-methoxypyridin-3-yl)-1H-1,2,4-triazol-5-yl]methyl}urea]"
7800,47,"CCN(Cc1ncnn1-c1ccc(Cl)c(F)c1)C(=O)NCc1ncnn1-c1ccc(O)nc1 [Compound 121, 3-{[1-(4-chloro-3-fluorophenyl)-1H-1,2,4-triazol-5-yl]methyl}-3-ethyl-1-{[1-(6-hydroxypyridin-3-yl)-1H-1,2,4-triazol-5-yl]methyl}urea]"
190,42,"CCN(Cc1ncnn1-c1ccc(OC)nc1)C(=O)NCc1ncnn1-c1ccc(Cl)c(F)c1 [Compound 122, 3-{[1-(4-chloro-3-fluorophenyl)-1H-1,2,4-triazol-5-yl]methyl}-1-ethyl-1-{[1-(6-methoxypyridin-3-yl)-1H-1,2,4-triazol-5-yl]methyl}urea]"
140,70,"COc1ccc(-n2ncnc2CNC(=O)NCc2nc(C)nn2-c2ccc(Cl)c(F)c2)cn1 [Compound 123, 3-{[1-(4-chloro-3-fluorophenyl)-3-methyl-1H-1,2,4-triazol-5-yl]methyl}-1-{[1-(6-methoxypyridin-3-yl)-1H-1,2,4-triazol-5-yl]methyl}urea]"
270,79,"CCN(Cc1ncnn1-c1ccc(OC)nc1)C(=O)NCc1nc(C)nn1-c1ccc(Cl)c(F)c1 [Compound 124, 3-{[1-(4-chloro-3-fluorophenyl)-3-methyl-1H-1,2,4-triazol-5-yl]methyl}-1-ethyl-1-{[1-(6-methoxypyridin-3-yl)-1H-1,2,4-triazol-5-yl]methyl}urea]"
3800,81,"Cc1nc(CNC(=O)NCc2ncnn2-c2cc3ccccc3cn2)n(-c2ccc(Cl)c(F)c2)n1 [Compound 125, 1-{[1-(4-chloro-3-fluorophenyl)-3-methyl-1H-1,2,4-triazol-5-yl]methyl}-3-{[1-(isoquinolin-3-yl)-1H-1,2,4-triazol-5-yl]methyl}urea]"
67,84,"Cc1nc(CNC(=O)NCc2ncnn2-c2cnc3ccccc3c2)n(-c2ccc(Cl)c(F)c2)n1 [Compound 126, 1-{[1-(4-chloro-3-fluorophenyl)-3-methyl-1H-1,2,4-triazol-5-yl]methyl}-3-{[1-(quinolin-3-yl)-1H-1,2,4-triazol-5-yl]methyl}urea]"
47,45,"Cc1nc(CNC(=O)NCc2ncnn2-c2ccc3ncncc3c2)n(-c2ccc(Cl)c(F)c2)n1 [Compound 127, 1-{[1-(4-chloro-3-fluorophenyl)-3-methyl-1H-1,2,4-triazol-5-yl]methyl}-3-{[1-(quinazolin-6-yl)-1H-1,2,4-triazol-5-yl]methyl}urea]"

# From patent publication US20230278984A1 (Global Blood Therapeutics, Inc., priority 2020, published 2023)
